Data on 13 molecules can be found in ChEMBL document CHEMBL3091384, “Chemical probes to study ADP-ribosylation: synthesis and biochemical evaluation of inhibitors of the human ADP-ribosyltransferase ARTD3/PARP3” (J Med Chem, 2013).

The target of assay [1] is T1, Poly [ADP-ribose] polymerase 1 (Homo sapiens, UniProt P09874).
The species named for assay [2] is Homo sapiens. Nature of the assay: Binding affinity to […] (unknown origin) assessed as change in melting temperature by thermal stabilization assay.
The target of assay [3] is Poly [ADP-ribose] polymerase 2 (Homo sapiens) (UniProt Q9UGN5).
Poly [ADP-ribose] polymerase 2 (Homo sapiens), sequence (Q9UGN5 whole entry): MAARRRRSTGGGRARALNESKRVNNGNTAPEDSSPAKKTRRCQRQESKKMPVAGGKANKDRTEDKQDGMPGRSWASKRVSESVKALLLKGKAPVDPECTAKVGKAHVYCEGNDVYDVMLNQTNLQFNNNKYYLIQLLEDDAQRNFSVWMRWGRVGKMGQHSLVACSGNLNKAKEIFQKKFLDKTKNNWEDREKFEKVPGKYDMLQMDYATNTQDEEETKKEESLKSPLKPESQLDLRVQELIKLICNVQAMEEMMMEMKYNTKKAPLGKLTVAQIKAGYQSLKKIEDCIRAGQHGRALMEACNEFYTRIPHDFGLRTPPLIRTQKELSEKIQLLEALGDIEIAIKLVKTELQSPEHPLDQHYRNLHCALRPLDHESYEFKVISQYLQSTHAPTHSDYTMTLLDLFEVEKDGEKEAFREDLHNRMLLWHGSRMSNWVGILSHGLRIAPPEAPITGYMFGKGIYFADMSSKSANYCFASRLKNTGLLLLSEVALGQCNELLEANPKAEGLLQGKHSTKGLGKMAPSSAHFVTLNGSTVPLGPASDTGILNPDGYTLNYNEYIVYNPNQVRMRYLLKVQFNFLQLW
Assay [4] has as its system Poly [ADP-ribose] polymerase 14, ARTD8/PARP14 (Homo sapiens).
Assay [5] has as its target T1, Poly [ADP-ribose] polymerase 1. The source holds these as a separate data set.
The target of assay [6] is T2, Protein mono-ADP-ribosyltransferase PARP3 (Homo sapiens) (UniProt Q9Y6F1).
T2 sequence (whole entry): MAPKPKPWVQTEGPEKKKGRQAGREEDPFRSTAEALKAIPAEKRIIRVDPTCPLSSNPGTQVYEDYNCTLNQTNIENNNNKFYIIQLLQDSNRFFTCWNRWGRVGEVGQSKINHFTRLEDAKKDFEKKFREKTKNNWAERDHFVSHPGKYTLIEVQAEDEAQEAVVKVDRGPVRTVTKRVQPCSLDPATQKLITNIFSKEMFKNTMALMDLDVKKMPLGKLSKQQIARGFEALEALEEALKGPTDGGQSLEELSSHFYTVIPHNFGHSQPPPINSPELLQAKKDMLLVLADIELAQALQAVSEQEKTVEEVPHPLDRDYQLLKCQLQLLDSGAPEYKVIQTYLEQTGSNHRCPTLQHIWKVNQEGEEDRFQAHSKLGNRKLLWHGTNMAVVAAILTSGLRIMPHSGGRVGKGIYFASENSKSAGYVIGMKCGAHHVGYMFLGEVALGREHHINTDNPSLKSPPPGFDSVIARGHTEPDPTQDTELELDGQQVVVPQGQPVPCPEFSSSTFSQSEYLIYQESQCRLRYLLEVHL

T1 sequence (P09874 whole entry): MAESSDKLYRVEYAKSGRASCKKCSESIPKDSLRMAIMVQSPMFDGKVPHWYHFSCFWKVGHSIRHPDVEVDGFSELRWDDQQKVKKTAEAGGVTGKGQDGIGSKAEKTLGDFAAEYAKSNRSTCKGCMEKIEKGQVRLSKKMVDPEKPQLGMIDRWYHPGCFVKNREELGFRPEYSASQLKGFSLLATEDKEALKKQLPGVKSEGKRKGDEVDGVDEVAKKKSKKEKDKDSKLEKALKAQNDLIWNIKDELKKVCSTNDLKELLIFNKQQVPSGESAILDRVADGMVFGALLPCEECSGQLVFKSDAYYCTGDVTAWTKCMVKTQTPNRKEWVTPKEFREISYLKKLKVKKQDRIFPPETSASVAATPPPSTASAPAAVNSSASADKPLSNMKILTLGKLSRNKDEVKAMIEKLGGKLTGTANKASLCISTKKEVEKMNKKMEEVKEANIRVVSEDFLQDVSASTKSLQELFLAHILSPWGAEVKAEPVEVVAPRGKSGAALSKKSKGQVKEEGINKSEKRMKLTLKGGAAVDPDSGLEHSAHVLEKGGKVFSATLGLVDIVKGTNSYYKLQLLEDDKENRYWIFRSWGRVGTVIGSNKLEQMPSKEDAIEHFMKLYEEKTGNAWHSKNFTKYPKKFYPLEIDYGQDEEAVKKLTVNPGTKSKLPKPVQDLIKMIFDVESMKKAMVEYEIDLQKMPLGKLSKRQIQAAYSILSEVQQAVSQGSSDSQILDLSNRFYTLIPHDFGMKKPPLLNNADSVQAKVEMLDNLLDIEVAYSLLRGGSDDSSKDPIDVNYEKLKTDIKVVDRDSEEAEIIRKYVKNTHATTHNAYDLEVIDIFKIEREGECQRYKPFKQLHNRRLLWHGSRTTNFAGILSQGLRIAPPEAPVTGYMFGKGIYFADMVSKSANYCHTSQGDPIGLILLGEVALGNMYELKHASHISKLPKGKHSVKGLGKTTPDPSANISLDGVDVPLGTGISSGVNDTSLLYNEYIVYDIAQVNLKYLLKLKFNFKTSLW

In general, ΔTm refers to the shift of the melting midpoint relative to a reference. By IC50 is commonly meant the midpoint of a concentration-inhibition curve. Low values mean greater potency in that assay, high ones weaker potency in that assay. With `O=C(CCc1nc2ccccc2c(=O)[nH]1)N[C@@H]1CCc2ccccc21`, the shift in melting temperature (ΔTm) in assay [1] was found to be 2.37 °C; in assay [2], 0.8 °C; in assay [3], 1.92 °C; in assay [4], 0.1 °C. The IC50 in assay [5] worked out at 780 nM.
As for `O=C(CCc1nc2ccccc2c(=O)[nH]1)N[C@H]1CCc2ccccc21`, the ΔTm in assay [1] was 2.38 °C; in assay [2], 0.84 °C; in assay [3], 1.39 °C; in assay [4], 0.18 °C. The molecule also registered an IC50 in assay [5] of 510 nM.
Turning to `O=C(CCc1nc2ccccc2c(=O)[nH]1)NCc1ccc(F)cc1`, the ΔTm in assay [1] stood at 3.11 °C; in assay [2], 0.69 °C; in assay [6] it was 4.2 °C; in assay [3], 1.37 °C; in assay [4], 0.69 °C.
Take `C[C@H](NC(=O)/C=C/c1nc2ccccc2c(=O)[nH]1)c1ccccc1`: the ΔTm in assay [1] was 1.22 °C; in assay [2], 0.42 °C; in assay [6], 0.22 °C; in assay [3], -0.67 °C; in assay [4], -0.07 °C.
For the molecule `C[C@H](NC(=O)Cc1nc2ccccc2c(=O)[nH]1)c1ccccc1`, the ΔTm is 0.31 °C in assay [1]; 0.01 °C in assay [2]; 0.43 °C in assay [6]; -0.01 °C in assay [3]; 0.04 °C in assay [4].
Consider `O=C(CCCc1nc2ccccc2c(=O)[nH]1)N[C@H]1CCc2ccccc21`, for which the thermal shift (ΔTm) was 1.88 °C in assay [1]; 0.59 °C in assay [2]; 4.69 °C in assay [6]; 1.27 °C in assay [3]; -0.18 °C in assay [4].
On to `O=C(NCc1ccccc1)NCc1nc2ccccc2c(=O)[nH]1`, for which the thermal shift (ΔTm) was 0.65 °C in assay [1]; 0.34 °C in assay [2]; 2.91 °C in assay [6]; -0.23 °C in assay [3]; -1.05 °C in assay [4].
Consider `O=C(CCc1nc2ccccc2c(=O)[nH]1)NCc1ccc(OC(F)F)cc1`, for which the ΔTm in assay [1] stood at 3.39 °C; in assay [2] it was 0.96 °C; in assay [6], 0.78 °C; in assay [3], 1.35 °C; in assay [4], 0.31 °C.
Regarding `Cc1ccc(C)c(C(C)NC(=O)CCc2nc3ccccc3c(=O)[nH]2)c1` (racemic), the ΔTm was determined as 2 °C in assay [1]; 0.44 °C in assay [2]; 3.07 °C in assay [6]; 0.87 °C in assay [3]; 0.57 °C in assay [4].
For the molecule `C[C@@H](NC(=O)Cc1nc2ccccc2c(=O)[nH]1)c1ccccc1`, the shift in melting temperature (ΔTm) in assay [1] is 0.37 °C; in assay [2], 0.05 °C; in assay [6], 0.63 °C; in assay [3] it was -0.25 °C; in assay [4], -0.04 °C.
The matching figures for `C[C@H](NC(=O)CCc1nc2ccccc2c(=O)[nH]1)c1cccc(Cl)c1`: 0.26 °C, 0.29 °C, 0.2 °C, -0.48 °C and -0.1 °C.
`O=C(CCc1nc2ccccc2c(=O)[nH]1)NC1CCCc2ccccc21` (stereo not given): the ΔTm in assay [1] worked out at 2.44 °C; in assay [2], 1.83 °C; in assay [6], 2.28 °C; in assay [3], 1.11 °C; in assay [4], 0.24 °C.
Consider `O=C(CCc1nc2cc(Cl)ccc2c(=O)[nH]1)N[C@H](CO)c1ccccc1`, for which the thermal shift (ΔTm) in assay [1] was 0.76 °C; in assay [2], 0.36 °C; in assay [6], 0.5 °C; in assay [3], 0.98 °C; in assay [4], -0.25 °C.
